According to patent publication US20240166626A1, “Compounds and Methods for Preventing, Treating, or Ameliorating Airway Disease” (THOMAS JEFFERSON UNIVERSITY, priority 2021, published 2024):

Molecular target: CXCR4 (Homo sapiens, UniProt P61073)
Experiment: BRET analysis of β-arrestin2 interaction with CXCR4 in HEK 293 cells
Type: cell-based
Conditions: 10 μM DFPQ, FIG. 2C
Description: FIGS. 2A-2C: […] Cells were read every 2 min post agonist addition. […]® ADRB2 cells (DiscoveRx) were maintained with the AssayCompleteTM Cell Culture kit (DiscoveRx catalog #92-[…]). […] HEK 293 cells stably overexpressing β2AR included 250 μg/ml G418. Cells were incubated at 37° C. in a humidified incubator with 5% CO2. […] Cells were read every three minutes for 18 minutes on a PolarStar Optima plate reader (BMG) to establish peak signal. […] Plates were incubated in the dark at room temperature for one hour. Luminescence was determined at room temperature (23-25° C.) on a PolarStar Optima plate reader (BMG). […] Screening data analysis and IC50 determination. […] Relative assay bias was calculated from the ratio of normalized cAMP and arrestin recruitment responses. […] BRET was measured using a Tecan Infinite F500 microplate reader. […] Bound [35 S]GTPγS was collected by rapid filtration on GF/B filters, washed 4 times with 4 ml of cold GTPγS wash buffer and analyzed by liquid scintillation counting. […] Immunoprecipitated proteins were separated by SDS-PAGE and analyzed by western blot using a β2AR C-terminal tail or phospho-specific antibody. […] Band intensity was measured by densitometry using ImageJ. […] Absorbance was then measured on a plate reader at 405 nm. […] Lungs were monitored for appropriate inflation. […] Images were analyzed post hoc using the ImageJ software. […] Cell-free area was quantitated using ImageJ. […]

Chain of CXCR4 (P61073 whole entry, species assumed): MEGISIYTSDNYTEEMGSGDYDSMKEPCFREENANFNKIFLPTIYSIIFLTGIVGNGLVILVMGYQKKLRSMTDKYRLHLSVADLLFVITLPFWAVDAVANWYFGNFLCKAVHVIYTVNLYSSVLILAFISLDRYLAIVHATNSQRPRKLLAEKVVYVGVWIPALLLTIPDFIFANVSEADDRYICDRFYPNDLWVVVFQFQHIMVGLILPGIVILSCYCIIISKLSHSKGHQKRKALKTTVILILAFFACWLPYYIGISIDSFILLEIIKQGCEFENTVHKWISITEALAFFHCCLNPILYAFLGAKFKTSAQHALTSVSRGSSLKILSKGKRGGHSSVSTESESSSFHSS

Fc1ccc(Nc2nc(NC3CCCCC3)c3ccccc3n2)cc1F [DFPQ, N^4-cyclohexyl-N^2-(3,4-difluorophenyl)quinazoline-2,4-diamine]
β-arrestin2 interaction with CXCR4: no effect
